Results as given in BindingDB's records for PubMed 1353247 (University of Nebraska, 1992).
“And” between values parts separate entries of the source, which are not always exact repeats. Identical values can stand only once.

Columns and labels:
[1] = biological target: Alpha-2C adrenergic receptor
[2] = biological target: T1, Alpha-2A adrenergic receptor (Homo sapiens, UniProt P08913)
T1 sequence (P08913 whole entry): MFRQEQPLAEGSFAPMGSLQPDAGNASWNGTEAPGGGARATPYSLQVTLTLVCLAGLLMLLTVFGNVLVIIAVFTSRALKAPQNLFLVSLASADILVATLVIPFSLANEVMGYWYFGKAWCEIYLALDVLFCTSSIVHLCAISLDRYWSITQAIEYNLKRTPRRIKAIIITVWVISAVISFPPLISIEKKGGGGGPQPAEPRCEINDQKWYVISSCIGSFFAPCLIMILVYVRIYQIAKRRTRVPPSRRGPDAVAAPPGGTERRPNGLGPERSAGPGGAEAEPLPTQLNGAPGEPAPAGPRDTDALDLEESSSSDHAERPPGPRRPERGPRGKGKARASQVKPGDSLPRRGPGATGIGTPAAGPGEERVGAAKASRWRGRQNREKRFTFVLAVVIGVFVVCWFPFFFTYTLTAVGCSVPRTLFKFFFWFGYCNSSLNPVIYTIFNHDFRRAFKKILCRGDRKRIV

[3] = biological target: T2, Alpha-2C adrenergic receptor (Homo sapiens, UniProt P18825)
T2 sequence (P18825 whole entry): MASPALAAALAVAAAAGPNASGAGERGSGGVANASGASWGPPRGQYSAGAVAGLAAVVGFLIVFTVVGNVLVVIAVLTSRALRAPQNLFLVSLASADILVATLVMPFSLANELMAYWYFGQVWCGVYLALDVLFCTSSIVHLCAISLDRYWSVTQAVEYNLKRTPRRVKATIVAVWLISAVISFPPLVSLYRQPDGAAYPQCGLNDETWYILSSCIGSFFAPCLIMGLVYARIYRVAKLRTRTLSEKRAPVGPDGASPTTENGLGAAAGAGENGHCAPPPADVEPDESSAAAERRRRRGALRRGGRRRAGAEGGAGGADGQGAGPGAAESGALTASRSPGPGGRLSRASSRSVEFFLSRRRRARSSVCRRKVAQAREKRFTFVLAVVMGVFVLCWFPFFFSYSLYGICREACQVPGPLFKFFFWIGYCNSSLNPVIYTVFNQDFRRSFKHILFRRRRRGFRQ

[4] = biological target: T3, Alpha-2B adrenergic receptor (Rattus norvegicus, UniProt P19328)
T3 sequence (P19328 whole entry): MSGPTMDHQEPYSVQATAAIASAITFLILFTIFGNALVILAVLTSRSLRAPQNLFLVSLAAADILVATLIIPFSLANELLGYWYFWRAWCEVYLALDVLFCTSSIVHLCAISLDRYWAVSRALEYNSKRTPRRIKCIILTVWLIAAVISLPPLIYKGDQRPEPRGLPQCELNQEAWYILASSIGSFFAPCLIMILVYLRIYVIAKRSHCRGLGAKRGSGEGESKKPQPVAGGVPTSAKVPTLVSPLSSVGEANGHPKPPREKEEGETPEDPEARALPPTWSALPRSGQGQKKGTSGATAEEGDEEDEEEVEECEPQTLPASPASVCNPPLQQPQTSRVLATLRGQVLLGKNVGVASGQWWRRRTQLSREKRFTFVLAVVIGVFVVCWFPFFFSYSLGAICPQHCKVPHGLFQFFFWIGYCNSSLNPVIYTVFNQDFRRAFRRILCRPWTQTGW

Structure (SMILES) | Ki [1] | Ki [2] | Ki [3] | Ki [4]
COc1cccc(OC)c1OCCNCC1Oc2ccccc2OC1c1ccccc1 (stereo not drawn) [NSC_185453] | 0.75 nM | 0.91 nM and 1.27 nM | 0.4 nM | 7.89 nM
COC(=O)C1=CO[C@@H](C)[C@@H]2CN3CCc4c([nH]c5ccccc45)[C@H]3C[C@H]12 [AKUAMMIGINE] | 20 nM | 71 nM and 104 nM |  | 159 nM
O=C1NCN(c2ccccc2)C12CCN(CC1COc3ccccc3O1)CC2 (stereo not drawn) [8-(2,3-Dihydro-benzo[1,4]dioxin-2-ylmethyl)-1-phenyl-1,3,8-triaza-spiro[4.5]decan-4-one] | 0.26 nM | 5.5 nM and 8.3 nM | 0.13 nM | 0.29 nM
COc1ccccc1N1CCN(CCC2C(=O)c3ccccc3C(C)(C)C2=O)CC1 (stereo not drawn) [NSC_122211] |  |  | 3.82 nM | 
CN1C[C@H](Cn2ccnc2-c2ccccc2)C[C@@H]2c3cccc4[nH]c(Br)c(c34)C[C@H]21 [BAM-1303] |  | 0.39 nM and 1.34 nM | 0.39 nM | 6.94 nM
COC(=O)C1=COC(C)C2CN3CCc4c([nH]c5ccccc45)C3CC12 (stereo not drawn) [Ajmalicine] | 1.71 nM | 6.4 nM |  | 31.2 nM
